Measurements taken from patent US12115209B2, “ROMO1-derived antimicrobial peptides including lysine substitution and variants thereof” (KOREA UNIVERSITY RESEARCH AND BUSINESS FOUNDATION, priority 2019, dated 2024).
Non-standard residues stand in square brackets, D forms with d. Residues, ends and D or L forms follow the SMILES beside them. No end group written: not given here.

Columns and labels:
Type in all cases: cell-based
mouse red blood cells = tested on: mouse red blood cells
Procedure: Red blood cells were diluted with PBS, centrifuged 3 times at 900 g for 10 minutes, and washed. 100 μl of the diluted red blood cell solution (10% v/v PBS) was dispensed into each well of a 96-well microplate, and KU-5878, KU-5878-K4, KU-5878-K4-D, melittin, magainin 2 or daptomycin was added to each well which was then filled with PBS to 200 μl, followed by reaction by incubation at 37° C. for 1 hour. Then, the supernatant of the reaction solution was separated, and the absorbance at a wavelength of 550 nm was measured using a spectrophotometer. As control, PBS and 0.1% Triton X-100 (Triton X-100) solution were used.
Based on the results of measurement of the absorbance, the degree of red blood cell destruction was calculated according to Equation 1 below, and the results of the calculation are shown in FIG. 6. % The intact RBC=100(%)−[(absorbance of peptide-treated red blood cell solution−absorbance of PBS-treated red blood cell solution)/(absorbance of Triton X-100-treated red blood cell solution−absorbance of PBS-treated red blood cell solution)×100(%)] [Equation 1]

CRPA = assay: Minimum bactericidal concentration (MBC) assay
[1] = tested on: Methicillin-resistant Staphylococcus aureus (MRSA, ATCC 33591); assay: Minimum bactericidal concentration (MBC) assay
In short: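 Peptide at 0 to 300 μg/ml reacted 1 h at 37 °C with 1×10^5 CFU/ml bacteria in SP buffer (10 mM sodium phosphate, 1% TSB), bacteria pre-grown in 3% TSB. Aliquots then spread on TS agar and checked for colonies after 18 h at 37 °C.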

[2] = tested on: Staphylococcus aureus (ATCC 29213); assay: Minimum bactericidal concentration (MBC) assay
In short: (§1)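 A 1 h killing step at 37° C in 10 mM sodium phosphate with 1% TSB exposes 1×10^5 CFU/ml of each strain to peptide across 0–300 μg/ml. The lowest peptide concentration leaving no colonies after 18 h on TS agar defines the MBC.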

[3] = tested on: Pseudomonas aeruginosa (ATCC 27853); assay: Minimum bactericidal concentration (MBC) assay
In short: as §1

[4] = tested on: Pseudomonas aeruginosa, Staphylococcus aureus, CRPA, MRSA; assay: Increase in antibacterial activity (MBC) compared with KU-5878
[5] = tested on: Escherichia coli (ATCC 25922); settings: ATCC 25922, 4 h
Procedure: (§2) Specifically, each type of bacteria was cultured in 3% (w/v) TSB (tryptic soy broth) liquid medium at 37° C. and 200 rpm for 4 hours, and then further cultured under the same conditions for 3 hours to a concentration of 5×10^6 CFU/ml. Strain solutions were prepared by diluting each of the further cultured strains with SP buffer to a final concentration of 2×10^5 CFU/ml.
(§3) Then, the KU-5878 peptide at varying concentrations (0 μg/ml to 300 μg/ml) was dispensed into each well of a 96-well microplate, and 100 μl (1×10^5 CFU/ml) of each of the prepared strain solutions was added thereto, mixed therewith, and allowed to react with the peptide in an incubator at 37° C. for 1 hour.
(§4) In addition, 10 μl of each reaction solution of the peptide and the strain was plated on the TS agar plate at a constant size, and incubated in an incubator at 37° C. for 18 hours, and then colony formation on the plate was checked. The minimum bactericidal concentration was defined as the minimum concentration of the peptide at which no colony was formed, and the experimental results are shown in Table 2 below.

[6] = tested on: Klebsiella pneumoniae (ATCC 13883); settings: ATCC 13883, 4 h
Procedure: as §2, §3, §4

[7] = tested on: Enterococcus faecalis (ATCC 19433); settings: ATCC 19433, 4 h
Procedure: as §2, §3, §4

[8] = tested on: Acinetobacter baumannii (ATCC 19606); settings: ATCC 19606, 4 h
Procedure: as §2, §3, §4

[9] = tested on: Enterococcus faecium (ATCC 19434); settings: ATCC 19434, 4 h
Procedure: as §2, §3, §4

[10] = tested on: Enterobacter aerogenes (ATCC 13048); settings: ATCC 13048, 4 h
Procedure: as §2, §3, §4

[11] = tested on: Bacillus subtilis (ATCC 6633); settings: ATCC 6633, 4 h
Procedure: as §2, §3, §4

[12] = tested on: Streptomyces sindenensis (ATCC 12392); settings: ATCC 12392, 4 h
Procedure: as §2, §3, §4

[13] = mark = antibacterial activity increased compared with KU-5878

Molecule | MBC CRPA (CRPA; Tables 11-21, no unit printed) [µg/mL] | MBC MRSA ([1]; Tables 11-21, no unit printed) [µg/mL] | MBC Staphylococcus aureus ([2]; Tables 11-21, no unit printed) [µg/mL] | MBC Pseudomonas aeruginosa ([3]; Tables 11-21, no unit printed) [µg/mL] | Increase in activity [4, 13] | also measured
CC[C@H](C)[C@H](NC(=O)CNC(=O)[C@H](CCSC)NC(=O)CNC(=O)[C@@H](NC(=O)[C@H](C)NC(=O)[C@H](CCSC)NC(=O)[C@H](Cc1ccccc1)NC(=O)[C@@H](NC(=O)CNC(=O)[C@H](Cc1ccccc1)NC(=O)[C@@H](CCCCN)NC(=O)CNC(=O)CNC(=O)[C@@H](CCCCN)NC(=O)[C@@H](CCCCN)NC(=O)[C@H](CCSC)NC(=O)[C@H](CCSC)NC(=O)[C@@H](CCCCN)NC(=O)[C@@H](N)CCCCN)[C@@H](C)O)[C@@H](C)CC)C(=O)N[C@@H](CCCNC(=N)N)C(=O)O [KU-5878-K4-D] (H-K[dK]MM[dK][dK]GG[dK]FGTFMAIGMGIR-OH) | – | – | – | – | – | hemolysis of red blood cells (mouse red blood cells): little hemolysis
KTMMQSGGTFGTFMAIGM-IR [Peptide 5878-d76G] | 90 | 90 | 70 | 80 | 0 | –
KKMMKKGGKFGTFMAIGMGIR [KU-5878-K4] | – | – | – | – | – | MBC value [5]: 5 µg/mL; MBC value [6]: 5 µg/mL; MBC value [7]: 5 µg/mL; MBC value [8]: 4 µg/mL; MBC value [9]: 5 µg/mL; MBC value [10]: 5 µg/mL; MBC value [11]: 5 µg/mL; MBC value [12]: 5 µg/mL; hemolysis of red blood cells (mouse red blood cells): little hemolysis
KKMMKKGGKFGTFMAIGMGI- [Peptide 5878-K4-78R] | 8 | 4 | 10 | 4 | ◯ | –
KKMMKKGGKFG-F-AIGMGIR [Peptide K4-d69T-d71M] | 12 | 12 | 10 | 10 | ◯ | –
d 60M 69T 71M 75M (MKKGGKFG) | – | – | – | – | – | MBC CRPA (CRPA; CRPA): 2 µg/mL; MBC MRSA ([1]; MRSA): 2 µg/mL; MBC Staphylococcus aureus ([2]; Staphylococcus aureus): 1 µg/mL; MBC Pseudomonas aeruginosa ([3]; Pseudomonas aeruginosa): 2 µg/mL; Increase in activity ([4]; compared with KU-5878): ◯
KKMMKKGGKFGTF--IGMGIR [Peptide K4-d71M-d72A] | 20 | 20 | 20 | 20 | ◯ | –
KK-MKKGGKFGTFMAIGMGIR [5878-K4-d60M(=d61M)] | 4 | 2 | 3 | 2 | ◯ | –
KKMMKSGGTFGTFMAIGMGIR [KU-5878-K2(T59K, Q62K)] | 6 | 8 | 8 | 8 | ◯ | –
KKMMKKGGKFGTFMAIG-GIR [Peptide 5878-K4-d75M] | 4 | 2 | 2 | 2 | ◯ | –
KKMMKKGGKFGTFM-IGMGIR [Peptide 5878-K4-d72A] | 4 | 3 | 2 | 2 | ◯ | –
KKMMKKGGKFG-F-AIG-GIR [d 69T 71M 75M] | 3 | 2 | 2 | 2 | ◯ | –
